Assay results: ChEMBL document CHEMBL1201862, “PubChem BioAssay data set” (2004)
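All cell lines were grown in 96-well plates and treated with compound for 48 hours. The concentration for 50% growth inhibition is given as GI50.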 Calls of active or inactive are those of the source. No stated cut-off is given here; in the data, active = GI50 up to about 1.1 µM and inactive = higher.

Assays:
Assay in all cases: NCI-60 cell line screen, 48 h
KM12 = tested on: KM12
MDA-MB-435 = tested on: MDA-MB-435
M14 = tested on: M14
SK-MEL-5 = tested on: SK-MEL-5
HOP-92 = tested on: HOP-92
Hs-578T = tested on: Hs-578T
A549 = tested on: A549
RPMI-8226 = tested on: RPMI-8226
SF-268 = tested on: SF-268
CAKI-1 = tested on: CAKI-1
OVCAR-8 = tested on: OVCAR-8
SN12C = tested on: SN12C
TK-10 = tested on: TK-10
HCC 2998 = tested on: HCC 2998
MDA-N = tested on: MDA-N
NCI-H23 = tested on: NCI-H23
NCI/ADR-RES = tested on: NCI/ADR-RES
A498 = tested on: A498
HL-60 = tested on: HL-60
SF-295 = tested on: SF-295
SF-539 = tested on: SF-539
EKVX = tested on: EKVX
COLO 205 = tested on: COLO 205
OVCAR-5 = tested on: OVCAR-5
UACC-62 = tested on: UACC-62
U-251 = tested on: U-251
CCRF-CEM = tested on: CCRF-CEM
SK-OV-3 = tested on: SK-OV-3
LOX IMVI = tested on: LOX IMVI
SR = tested on: SR
OVCAR-4 = tested on: OVCAR-4
786-0 = tested on: 786-0
HT-29 = tested on: HT-29
NCI-H522 = tested on: NCI-H522
IGROV-1 = tested on: IGROV-1
HCT-116 = tested on: HCT-116
HCT-15 = tested on: HCT-15
ACHN = tested on: ACHN
DU-145 = tested on: DU-145
RXF 393 = tested on: RXF 393
NCI-H226 = tested on: NCI-H226
MDA-MB-231 = tested on: MDA-MB-231
SW-620 = tested on: SW-620
UO-31 = tested on: UO-31
SK-MEL-28 = tested on: SK-MEL-28
UACC-257 = tested on: UACC-257
OVCAR-3 = tested on: OVCAR-3
MCF7 = tested on: MCF7
T47D = tested on: T47D
SNB-75 = tested on: SNB-75
K562 = tested on: K562
HOP-62 = tested on: HOP-62
NCI-H460 = tested on: NCI-H460
MOLT-4 = tested on: MOLT-4
SNB-19 = tested on: SNB-19
Malme-3M = tested on: Malme-3M
PC-3 = tested on: PC-3
SK-MEL-2 = tested on: SK-MEL-2

Clc1ccccc1/C=C\C1(c2ccccc2)OCCO1
GI50 (KM12): 11 µM (inactive) | GI50 (MDA-MB-435): 15.6 µM (inactive) | GI50 (M14): > 100 µM (inactive) | GI50 (SK-MEL-5): 19.8 µM (inactive) | GI50 (HOP-92): 28.9 µM (inactive) | GI50 (Hs-578T): 13.8 µM (inactive) | GI50 (A549): > 100 µM (inactive) | GI50 (RPMI-8226): 4.2 µM (inactive) | GI50 (SF-268): 13.1 µM (inactive) | GI50 (CAKI-1): 17.3 µM (inactive) | GI50 (OVCAR-8): 17.7 µM (inactive) | GI50 (SN12C): 18.1 µM (inactive) | GI50 (TK-10): 22.2 µM (inactive) | GI50 (HCC 2998): 17.5 µM (inactive) | GI50 (MDA-N): 15.6 µM (inactive) | GI50 (NCI-H23): 10.2 µM (inactive) | GI50 (NCI/ADR-RES): 16.4 µM (inactive) | GI50 (A498): 20.7 µM (inactive) | GI50 (HL-60): 24.8 µM (inactive) | GI50 (SF-295): 16.7 µM (inactive) | GI50 (SF-539): 24.9 µM (inactive) | GI50 (EKVX): 19.1 µM (inactive) | GI50 (COLO 205): 21.3 µM (inactive) | GI50 (OVCAR-5): 20 µM (inactive) | GI50 (UACC-62): 15.7 µM (inactive) | GI50 (U-251): 12.2 µM (inactive) | GI50 (CCRF-CEM): 19.7 µM (inactive) | GI50 (SK-OV-3): 29.8 µM (inactive) | GI50 (LOX IMVI): 5.36 µM (inactive) | GI50 (SR): 3.58 µM (inactive) | GI50 (OVCAR-4): 18 µM (inactive) | GI50 (786-0): 16.5 µM (inactive) | GI50 (HT-29): 15.8 µM (inactive) | GI50 (NCI-H522): 13.4 µM (inactive) | GI50 (IGROV-1): 14.2 µM (inactive) | GI50 (HCT-116): 12.3 µM (inactive) | GI50 (HCT-15): 12.6 µM | GI50 (ACHN): 17.3 µM (inactive) | GI50 (DU-145): 16.7 µM (inactive) | GI50 (RXF 393): 19.1 µM (inactive) | GI50 (NCI-H226): 27.1 µM (inactive) | GI50 (MDA-MB-231): 12.7 µM (inactive) | GI50 (SW-620): 16.1 µM (inactive) | GI50 (UO-31): > 100 µM (inactive) | GI50 (SK-MEL-28): 21.1 µM (inactive) | GI50 (UACC-257): 16.7 µM (inactive) | GI50 (OVCAR-3): 17.7 µM (inactive) | GI50 (MCF7): 2.77 µM (inactive) | GI50 (T47D): 26.9 µM (inactive) | GI50 (SNB-75): 19 µM (inactive) | GI50 (K562): 16.7 µM (inactive) | GI50 (HOP-62): 22.3 µM (inactive) | GI50 (NCI-H460): 16.8 µM (inactive) | GI50 (MOLT-4): 15.9 µM (inactive)

CO[C@]12CC(=O)C3(C(C[C@H]4CC5CCC6=CC(=O)CC[C@]6(OC(C)=O)C5C[C@@]43C)C1)C1C[C@H]3[C@@H]4CCC5=CC(=O)CC[C@]5(OC(C)=O)[C@H]4CC[C@]3(C)C12 (some centres undefined)
GI50 (MDA-MB-435): > 100 µM (inactive) | GI50 (M14): > 100 µM (inactive) | GI50 (SK-MEL-5): 39.4 µM (inactive) | GI50 (HOP-92): > 100 µM (inactive) | GI50 (Hs-578T): > 100 µM (inactive) | GI50 (A549): > 100 µM (inactive) | GI50 (RPMI-8226): > 100 µM (inactive) | GI50 (SNB-19): > 100 µM (inactive) | GI50 (SF-268): > 100 µM (inactive) | GI50 (CAKI-1): > 100 µM (inactive) | GI50 (Malme-3M): > 100 µM (inactive) | GI50 (OVCAR-8): > 100 µM (inactive) | GI50 (SN12C): > 100 µM (inactive) | GI50 (TK-10): > 100 µM (inactive) | GI50 (HCC 2998): > 100 µM (inactive) | GI50 (MDA-N): 58.2 µM (inactive) | GI50 (NCI-H23): > 100 µM (inactive) | GI50 (PC-3): > 100 µM (inactive) | GI50 (NCI/ADR-RES): > 100 µM (inactive) | GI50 (A498): > 100 µM (inactive) | GI50 (HL-60): > 100 µM (inactive) | GI50 (SF-295): > 100 µM (inactive) | GI50 (SF-539): > 100 µM (inactive) | GI50 (SK-MEL-2): > 100 µM (inactive) | GI50 (EKVX): > 100 µM (inactive) | GI50 (COLO 205): 19.7 µM (inactive) | GI50 (OVCAR-5): > 100 µM (inactive) | GI50 (UACC-62): > 100 µM (inactive) | GI50 (U-251): > 100 µM (inactive) | GI50 (CCRF-CEM): > 100 µM (inactive) | GI50 (SK-OV-3): > 100 µM (inactive) | GI50 (LOX IMVI): > 100 µM (inactive) | GI50 (SR): > 100 µM (inactive) | GI50 (OVCAR-4): > 100 µM (inactive) | GI50 (786-0): > 100 µM (inactive) | GI50 (HT-29): > 100 µM (inactive) | GI50 (NCI-H522): > 100 µM (inactive) | GI50 (IGROV-1): > 100 µM (inactive) | GI50 (HCT-116): > 100 µM (inactive) | GI50 (HCT-15): > 100 µM | GI50 (ACHN): > 100 µM (inactive) | GI50 (DU-145): > 100 µM (inactive) | GI50 (MDA-MB-231): 27.5 µM (inactive) | GI50 (SW-620): > 100 µM (inactive) | GI50 (UO-31): > 100 µM (inactive) | GI50 (SK-MEL-28): > 100 µM (inactive) | GI50 (UACC-257): > 100 µM (inactive) | GI50 (OVCAR-3): > 100 µM (inactive) | GI50 (MCF7): > 100 µM (inactive) | GI50 (T47D): > 100 µM (inactive) | GI50 (SNB-75): > 100 µM (inactive) | GI50 (K562): > 100 µM (inactive) | GI50 (HOP-62): > 100 µM (inactive) | GI50 (NCI-H460): > 100 µM (inactive) | GI50 (MOLT-4): > 100 µM (inactive)
